These results are taken from patent US8658167B2, “Methods and compositions for treatment and diagnosis of fibrosis, tumor invasion, angiogenesis, and metastasis” (Gilead Biologics, Inc., priority 2007, dated 2014).

The subject of test [1] is LOXL2. Put plainly: Mode of inhibition of LOXL2. Conditions: 1,5-diaminopentane substrate; FIG. 21. It counts as biochemical. As for the experimental part: Mode of inhibition of antibodies against LOXL2 was conducted using the model described below. In these experiments, the dependence of the steady state rate on the concentration of 1,5-diaminopentane was monitored under increasing concentrations of antibody. The purpose was to assess whether the Km for substrate, kcat or both change in the presence of antibody. Parameter α describes the effect of the compound on substrate affinity. An α value equal to one describes a situation in which the compound binds equally well the free enzyme and the enzyme-substrate complex (non-competitive inhibition like). Values less than one describe an interaction in which the compound binds the enzyme-substrate complex (uncompetitive inhibition like). Values greater than one correspond to the compound binding the free enzyme better than the enzyme-substrate complex (competitive inhibition like). The β value describes the effect of the modulator on the rate of the enzyme. Inhibitors have values less than one (for a complete inhibitor β=0) and activators have values greater than one. […] The steady state rates were determined from the slope of the fluorescence response as a function of time as described above. Data was plotted as the dependence of steady state rate on the concentration of substrate (1,5-diaminopentane) at several fixed concentrations of antibody and analyzed with GraFit.

Test [2] addresses T1, LOX (Mus musculus, UniProt P28301).
T1 construct: Specific LOX activity was evident on the cell surface of NIH3T3 cells; endogenous in cells; host or cells: NIH 3T3
T1 sequence (P28301 163-411): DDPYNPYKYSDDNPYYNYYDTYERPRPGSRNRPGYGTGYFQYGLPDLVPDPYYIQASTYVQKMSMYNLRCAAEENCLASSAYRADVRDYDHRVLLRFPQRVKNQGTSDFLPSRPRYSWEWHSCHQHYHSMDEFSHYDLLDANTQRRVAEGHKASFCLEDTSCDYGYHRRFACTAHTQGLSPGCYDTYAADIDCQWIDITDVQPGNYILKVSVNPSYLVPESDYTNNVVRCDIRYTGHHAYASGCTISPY
Put plainly: Surface-associated LOX activity in 3T3 cells (HRP-coupled Amplex Ultra Red assay, 1,5-diaminopentane substrate). It counts as cell-based. Conditions: BAPN 1 mM; LOX mAb 15 ug/ml; LOX siRNA 100 nM, day seven after transfection; FIG. 15. The method, then:
Specific LOX activity was evident on the cell surface of NIH3T3 cells. Activity was quantitated with a horseradish peroxidase-coupled fluorescent assay method based on the oxidation of Amplex Ultra Red with a 1,5-diaminopentane substrate. LOX activity was inhibited with the irreversible small molecule inhibitor, BAPN, with a monoclonal antibody raised against a LOX peptide, and with a siRNA oligonucleotide specifically targeting LOX mRNA. (FIG. 15)
NIH 3T3 cells were transfected with 100 nM of LOX siRNA (Invitrogen Stealth, HSS106117, […] (SEQ ID NO:20)) or non-targeting control. 25 ul of Dharmafect® #3 (Dharmacon) was mixed with 1 ml of OPTIMEM I® (Invitrogen) and sat for 5 minutes at room temperature. 50 ul of 20 uM siRNA was then added, mixed and the transfection mix was incubated at room temperature for 15 minutes. 1 ml of transfection mix was then added to a trypsinized cell suspension in growth media containing 1×10^6 cells and the resulting mixture was plated into a 10 cm^2 culture dish. Six days after transfection, cells were trypsinized and re-plated into 96 well plate format at 50,000 cells/well. […] The plate was read in a Molecular Devices M5 plate reader at 37° C. The plate reader was configured to read fluorescence (ex=544 nm, em=590 nm) in kinetics mode for approximately 2.5 hours.

Test [3] concerns MDA-MB-231. As to the kind of experiment: Drug sensitivity assays with LOX/LOXL inhibition (CellTiter Glo viability). The test is classed as cell-based, human. The method, then: After 5 days of continuous exposure, cultures were rinsed and live cell number was determined using CellTiter Glo™ (Promega, San Luis Obispo, Calif.) according to manufacturer instructions. […] (FIGS. 36, 37, 38)
For siRNA drug sensitivity studies, cells were transiently transfected with […] LOX, LOXL2, or non-targeting Stealth Select™ RNAi validated oligos using the Dharmafect transfection reagent according to manufacturer instructions (Thermo Scientific, Lafayette, Colo.) 24 hrs prior to drug exposure. Knock down levels following drug exposure were verified with quantitative PCR. Stable shRNA cell lines were generated using the MISSION© shRNA Lentiviral System (Sigma-Aldrich, St. Louis, Mo.).
(In ATP-based viability assays light output follows the ATP content of the culture.)

Structures are written as SMILES.

In the case of `N#CCCN` [BAPN, β-aminoproprionitrile], the “mode of inhibition of LOXL2” value in test [1] is reported as “competitive inhibitor”. The “surface-associated LOX activity in 3T3 cells” value in test [2] is recorded as “inhibited”. Regarding `COc1cccc2c1C(=O)c1c(O)c3c(c(O)c1C2=O)C[C@@](O)(C(=O)CO)C[C@@H]3O[C@H]1C[C@H](N)[C@H](O)[C@H](C)O1` [doxorubicin], the “decrease of calculated IC50” value in test [3] (MDA-MB-231 siLOX, siLOXL2 and siLOX/siLOXL2 double knockdown cell lines vs parent cell line (control), FIG. 39A) is 27%-55%. With `C#Cc1cccc(Nc2ncnc3cc(OCCOC)c(OCCOC)cc23)c1` [erlotinib, Erlotinib], the “reduction in cell viability (calculated IC50 compared to control line)” value in test [3] (shLOXL2 knockdown cell line (shLOXL2.195) vs sh control, parental MDA-MB-231, FIG. 36) is “approximately 7 fold”.

The compound `CN(Cc1cnc2nc(N)nc(N)c2n1)c1ccc(C(=O)N[C@@H](CCC(=O)O)C(=O)O)cc1` [methotrexate (MTX), methotrexate] showed a reduction in viability in test [3] (MDA-MB-231 shLOX knockdown cell line vs GFP control, FIG. 37) of roughly 2 fold.
